{"source": "paper PMC3814793", "about": "“Identification of a Plasmodium falciparum Phospholipid Transfer Protein” (The Journal of Biological Chemistry, 2013)", "assay_in_all_cases": "radiolabelled phospholipid transfer between donor and acceptor vesicles", "assay_type_in_all_cases": "biochemical", "key": {"PFA0210cN123": {"target": "T1, PFA0210cN123 (Plasmodium falciparum, UniProt Q8I298)", "T1 construct": "gene PF3D7_0104200", "T1 sequence (Q8I298 entry or part of it)": "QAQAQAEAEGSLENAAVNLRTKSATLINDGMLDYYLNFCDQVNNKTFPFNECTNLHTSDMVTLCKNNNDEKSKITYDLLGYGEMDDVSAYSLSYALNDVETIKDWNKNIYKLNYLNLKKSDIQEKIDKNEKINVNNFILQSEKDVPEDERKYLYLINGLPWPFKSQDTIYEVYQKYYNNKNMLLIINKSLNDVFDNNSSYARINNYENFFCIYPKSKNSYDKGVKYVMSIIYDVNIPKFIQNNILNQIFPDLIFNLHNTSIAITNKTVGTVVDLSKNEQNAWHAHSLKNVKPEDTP", "details": "labelled compound, donor vesicles PC, phosphatidic acid, N-lactosylethanolamine"}, "PFA0210cN99": {"target": "T2, PFA0210cN99 (Plasmodium falciparum, UniProt Q8I298)", "T2 construct": "gene PF3D7_0104200", "T2 sequence (Q8I298 entry or part of it)": "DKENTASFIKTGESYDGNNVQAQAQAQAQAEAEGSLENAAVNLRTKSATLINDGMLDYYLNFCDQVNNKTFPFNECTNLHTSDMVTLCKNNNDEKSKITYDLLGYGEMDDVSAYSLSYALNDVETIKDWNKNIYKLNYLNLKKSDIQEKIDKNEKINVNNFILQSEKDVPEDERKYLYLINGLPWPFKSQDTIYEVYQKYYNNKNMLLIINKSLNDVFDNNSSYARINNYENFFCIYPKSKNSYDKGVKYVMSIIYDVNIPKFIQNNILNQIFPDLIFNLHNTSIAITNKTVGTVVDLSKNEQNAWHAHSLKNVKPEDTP", "details": "labelled compound, donor vesicles PC, phosphatidic acid, N-lactosylethanolamine"}, "[1]": {"target": "T3, PITP (rat phosphatidylinositol transfer protein α) (Rattus norvegicus, UniProt P16446)", "T3 construct": "gene Pitpna", "T3 sequence (P16446 2-271)": "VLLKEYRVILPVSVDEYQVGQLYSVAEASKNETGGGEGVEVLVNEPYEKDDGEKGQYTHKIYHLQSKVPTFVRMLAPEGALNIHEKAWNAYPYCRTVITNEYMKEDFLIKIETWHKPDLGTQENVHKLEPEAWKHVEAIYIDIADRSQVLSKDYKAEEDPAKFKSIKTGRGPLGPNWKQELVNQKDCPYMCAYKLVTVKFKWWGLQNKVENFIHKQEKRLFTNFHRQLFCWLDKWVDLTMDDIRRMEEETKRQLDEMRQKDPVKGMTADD", "details": "labelled compound; positive control protein; vesicles as in the rows above"}}, "data": [{"smiles": "CCCCCCCCCCCCCCCC(=O)OC[C@H](COP(=O)([O-])OCC[N+](C)(C)C)OC(=O)CCCCCCCCCCCCCCC", "note": "[L-[α-dipalmitoyl-1-14C]phosphatidylcholine]", "values": [{"measurement": "radiolabelled phospholipid transfer between donor and acceptor vesicles", "setting": "PFA0210cN123", "result": "(PFA0210cN99, PFA0210cN123, and PFA0210cN144, respectively) as the N-terminal residue can transfer phospholipids"}, {"measurement": "radiolabelled phospholipid transfer between donor and acceptor vesicles", "setting": "PFA0210cN99", "result": "(PFA0210cN99, PFA0210cN123, and PFA0210cN144, respectively) as the N-terminal residue can transfer phospholipids"}, {"measurement": "radiolabelled phospholipid transfer between donor and acceptor vesicles", "setting": "[1]", "result": "transferred PC at levels similar to that of the control protein PITP"}]}]}
